Experimental findings from patent US8269000B2, “Substituted pyrimidine and triazine compounds” (Gruenenthal GmbH, priority 2008, dated 2012) are described below.

The target of the first assay is T1, rat B1R (Rattus norvegicus, UniProt P97583).
T1 construct: expressed in transfected cells; host or cells: CHO K1 cells
T1 sequence (P97583 1-337): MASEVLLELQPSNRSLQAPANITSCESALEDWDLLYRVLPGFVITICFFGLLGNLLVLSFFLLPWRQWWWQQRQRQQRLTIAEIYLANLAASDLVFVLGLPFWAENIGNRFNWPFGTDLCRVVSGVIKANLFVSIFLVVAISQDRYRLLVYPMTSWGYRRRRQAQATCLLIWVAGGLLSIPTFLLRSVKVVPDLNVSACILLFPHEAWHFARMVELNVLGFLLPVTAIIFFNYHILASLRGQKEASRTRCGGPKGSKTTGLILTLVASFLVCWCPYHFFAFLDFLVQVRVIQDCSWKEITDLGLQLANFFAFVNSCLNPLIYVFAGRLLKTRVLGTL
The assay is described as follows: FLIPR Ca2+ functional study on bradykinin receptor 1 (rB1R CHO K1 cells). Format: cell-based. The settings on record: % inhibition rat B1R at 10 μM. The essentials:
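Antagonism was calculated as % of maximal inhibition of the Ca2+ rise triggered by agonist at EC80 (Lys-Des-Arg9-bradykinin for hB1R, Des-Arg9-bradykinin for rB1R), added 10-20 min after test compound (10 μM or serial dilutions for IC50) to Fluo-4-loaded transfected CHO K1 cells on FLIPR. Duplicates or triplicates, ≥2 independent runs.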
As to `COc1cc(C)c(S(=O)(=O)N2CCC[C@H]2COc2ccnc(N3CCC(CCN4CCCCC4)CC3)n2)c(C)c1` [H_CC-026, 4-[[(2S)-1-(4-methoxy-2,6-dimethylphenyl)sulfonyl-2-pyrrlidinyl]methoxy]-2-[4-[2-(1-piperidyl)ethyl]-1-piperidinyl]pyrimidine], the “% inh. (rat B1R) 10 μM” value turned out to be 75%.

Still in this assay, the particulars now being: CHO-K1, % inhibition rat B1R at 10 μM, read-out: % inh. (rat B1R) 10 μM.
For `COc1cc(C)c(S(=O)(=O)N(C)C(COc2nccc(N3CCC(c4cccc(F)c4)(N4CCN(C)CC4)CC3)n2)c2ccccc2)c(C)c1` (stereo not drawn) [G_CC-135, N-[2-[4-[4-(3-fluorophenyl)-4-(4-methyl-piperazin-1-yl)-piperidin-1-yl]-pyrimidin-2-yl]oxy-1-phenyl-ethyl]-4-methoxy-N,2,6-trimethyl-benzenesulfonic acid amide], the inhibition at 10 µM is 53%. For the molecule `COc1cc(C)c(S(=O)(=O)N2CCC[C@H]2COc2nccc(N3CCC4(CCN(Cc5ccccc5)C4=O)CC3)n2)c(C)c1` [G_CC-053, 3-benzyl-8-[2-[[(2S)-1-(4-methoxy-2,6-dimethylphenyl)sulfonyl-2-pyrrolidinyl)methoxy]-4-pyrimidinyl]-3,8-diazaspiro[4.5]decan-4-one], the inhibition at 10 µM came out at 96%. As for `COc1cc(C)c(S(=O)(=O)N2CCC[C@H]2COc2ccnc(N3CCC(OCCN4CCCC4)(c4cccnc4)CC3)n2)c(C)c1` [H_CC-040, 4-[[(2S)-1-(4-methoxy-2,6-dimethylphenyl)sulfonyl-2-pyrrolidinyl]methoxy]-2-[4-(3-pyridyl)-4-(2-1-pyrrolidinylethoxy)-1-piperidinyl]pyrimidine], the inhibition at 10 µM worked out at 51%. As for `COc1cc(C)c(S(=O)(=O)N2CCC[C@@H]2COc2ccnc(N3CCCC3Cc3ccccn3)n2)c(C)c1` (stereo partly drawn) [H_CC-084, 4-[[(2R)-1-[(4-methoxy-2,6-dimethyl-phenyl)sulfonyl]-pyrrolidin-2-yl]-methoxy]-2-[2-(pyridin-2-yl-methyl)-pyrrolidin-1-yl]-pyrimidine], the inhibition at 10 µM turned out to be 55%.

Turning to `COc1cc(C)c(S(=O)(=O)N2c3ccccc3C[C@H]2COc2ccnc(N(C)CCN3CCC(c4ccccc4)(N4CCCC4)CC3)n2)c(C)c1` [H_CC-072, [4-[[(2S)-1-[(4-methoxy-2,6-dimethyl-phenyl)sulfonyl]-2,3-dihydro-1H-indol-2-yl]-methoxy]-pyrimidin-2-yl]-methyl-[2-(4-phenyl-4-pyrrolidin-1-yl-piperidin-1-yl)-ethyl]-amine], the inhibition at 10 µM amounted to 83%. As to `COc1cc(C)c(S(=O)(=O)N2CCC[C@H]2COc2nccc(N3CCN(C)CC3)n2)c(C)c1` [G_CC-015, 2-[[(2S)-1-(4-methoxy-2,6-dimethylphenyl)sulfonyl-2-pyrrolidinyl]methoxy]-4-(4-methyl-1-piperazinyl)pyrimidine], the inhibition at 10 µM amounted to 83%. Regarding `CN(C(COc1ccnc(N2CCC(OCCN3CCCC3)(c3cccnc3)CC2)n1)c1ccccc1)S(=O)(=O)c1ccc2ccccc2c1` (stereo not drawn) [H_CC-038, N-methyl-N-[1-phenyl-2-[[2-[4-(3-pyridyl)-4-(2-1-pyrrolidinylethoxy)-1-piperidinyl]-4-pyrimidinyl]oxy]ethyl]-2-naphthalenesulfonamide], the inhibition at 10 µM was 70%. Still for that read-out and setting: next, `COc1cc(C)c(S(=O)(=O)N(C)CCOc2nccc(N3CCC4(CCN(Cc5ccccc5)C4=O)CC3)n2)c(C)c1` [G_CC-046, N-[2-[[4-(3-benzyl-4-oxo-3,8-diazaspiro[4.5]decan-8-yl)-2-pyrimidinyl]oxy]ethyl]-4-methoxy-N,2,6-trimethylbenzenesulfonamide]: 96%; `COc1cc(C)c(S(=O)(=O)N(C)C(COc2nccc(N3CCC(OCCN4CCCC4)(c4cccnc4)CC3)n2)c2ccccc2)c(C)c1` (stereo not drawn) [G_CC-062, 4-methoxy-N,2,6-trimethyl-N-[1-phenyl-2-[[4-[4-(3-pyridyl)-4-(2-1-pyrrolidinylethoxy)-1-piperidinyl]-2-pyrimidinyl]oxy]ethyl]benzenesulfonamide]: 78%. For `COc1cc(C)c(S(=O)(=O)N(C)C(COc2nccc(N3[C@@H]4CC[C@H]3CC(Oc3cccnc3)C4)n2)c2ccccc2)c(C)c1` (stereo partly drawn) [G_CC-107, 4-methoxy-N,2,6-trimethyl-N-[1-phenyl-2-[4-[(1S,5R)-3-pyridin-3-yloxy-8-azabicyclo[3.2.1]octan-8-yl]-pyrimidin-2-yl]oxy-ethyl]-benzenesulfonic acid amide], the inhibition at 10 µM is 94%. Turning to `CCCCC1(N(C)C)CCN(c2nccc(OCC3CCCCN3S(=O)(=O)c3c(C)cc(OC)cc3C)n2)CC1` (stereo not drawn) [H_CC-062, [4-butyl-1-[4-[[1-[(4-methoxy-2,6-dimethyl-phenyl)sulfonyl]-piperidin-2-yl]-methoxy]-pyrimidin-2-yl]-piperidin-4-yl]-dimethyl-amine], the inhibition at 10 µM came out at 73%. For `COc1cc(C)c(S(=O)(=O)N2c3ccccc3C[C@H]2COc2nccc(N3CCC(c4cccs4)(N(C)C)CC3)n2)c(C)c1` [G_CC-125, [1-[2-[[(2S)-1-[(4-methoxy-2,6-dimethyl-phenyl)sulfonyl]-2,3-dihydro-1H-indol-2-yl]-methoxy]-pyrimidin-4-yl]-4-thiophen-2-yl-piperidin-4-yl]-dimethyl-amine], the inhibition at 10 µM was 58%. As to `COc1cc(C)c(S(=O)(=O)N2CCC[C@H]2COc2ccnc(N3CCC(O)(c4ccccn4)CC3)n2)c(C)c1` [H_CC-047, 1-[4-[[(2S)-1-[(4-methoxy-2,6-dimethyl-phenyl)sulfonyl]-pyrrolidin-2-yl]-methoxy]-pyrimidin-2-yl]-4-pyridin-2-yl-piperidin-4-ol], the inhibition at 10 µM is 85%. On the same count and under the same terms, next, `COc1cc(C)c(S(=O)(=O)N2CCC[C@H]2COc2nccc(N3CCC(O)(c4cccnc4)CC3)n2)c(C)c1` [G_CC-020, 1-[2-[[(2S)-1-(4-methoxy-2,6-dimethylphenyl)sulfonyl-2-pyrrolidinyl]methoxy]-4-pyrimidinyl]-4-(3-pyridyl)-4-piperidinol]: 102%; `COc1cc(C)c(S(=O)(=O)N(C)CCOc2nccc(N3CCC(c4ccccc4)(N(C)C)CC3)n2)c(C)c1` [G_CC-117, N-[2-[4-(4-dimethylamino-4-phenyl-piperidin-1-yl)-pyrimidin-2-yl]oxy-ethyl]-4-methoxy-N,2,6-trimethyl-benzenesulfonic acid amide]: 56%; `COc1cc(C)c(S(=O)(=O)N(C)C(COc2nccc(N3CCC(Oc4ccccn4)CC3)n2)c2ccccc2)c(C)c1` (stereo not drawn) [G_CC-136, 4-methoxy-N,2,6-trimethyl-N-[1-phenyl-2-[4-(4-pyridin-2-yloxy-piperidin-1-yl)-pyrimidin-2-yl]oxy-ethyl]benzenesulfonic acid amide]: 81%. For `COc1cc(C)c(S(=O)(=O)N2CCCCC2COc2ccnc(N3[C@@H]4CC[C@H]3CC(Oc3ccncc3)C4)n2)c(C)c1` (stereo partly drawn) [H_CC-050, (1S,5R)-8-[4-[[1-[(4-methoxy-2,6-dimethyl-phenyl)sulfonyl]-piperidin-2-yl]-methoxy]-pyrimidin-2-yl]-3-pyridin-4-yloxy-8-azabicyclo[3.2.1]octane], the inhibition at 10 µM was determined as 74%. Consider `COc1cc(C)c(S(=O)(=O)N2CCCCC2COc2nccc(N3CCC4(CC3)C(=O)NCN4c3ccccc3)n2)c(C)c1` (stereo not drawn) [G_CC-025, 8-[2-[[1-(4-methoxy-2,6-dimethylphenyl)sulfonyl-2-piperidinyl]methoxy]-4-pyrimidinyl]-4-phenyl-2,4,8-triazaspiro[4.5]decan-1-one], for which the inhibition at 10 µM was found to be 95%. `COc1cc(C)c(S(=O)(=O)N(C)C(COc2ccnc(N3[C@@H]4CC[C@H]3CC(Oc3ccncc3)C4)n2)c2ccccc2)c(C)c1` (stereo partly drawn) [H_CC-093, 4-methoxy-N,2,6-trimethyl-N-[1-phenyl-2-[2-[(1S,5R)-3-pyridin-4-yloxy-8-azabicyclo[3.2.1]octan-8-yl]-pyrimidin-4-yl]oxy-ethyl]-benzenesulfonic acid amide]: the inhibition at 10 µM worked out at 63%. Turning to `COc1cc(C)c(S(=O)(=O)N(C)C(COc2nccc(N3CCC4(CCN(Cc5ccccc5)C4)C3)n2)c2ccccc2)c(C)c1` (stereo not drawn) [G_CC-068, N-[2-[[4-(3-benzyl-3,7-diazaspiro[4.4]nonan-7-yl)-2-pyrimidinyl]oxy]-1-phenylethyl]-4-methoxy-N,2,6-trimethylbenzenesulfonamide], the inhibition at 10 µM worked out at 68%. On the same count and under the same terms, next, `COc1cc(C)c(S(=O)(=O)N2CCCCC2COc2ccnc(N3CCC4(CCN(Cc5ccccc5)C4)C3)n2)c(C)c1` (stereo not drawn) [H_CC-021, 3-benzyl-7-[4-[[1-(4-methoxy-2,6-dimethylphenyl)sulfonyl-2-piperidinyl]methoxy]-2-pyrimidinyl]-3,7-diazaspiro[4.4]nonane]: 62%. `COc1cc(C)c(S(=O)(=O)N2CC(Oc3nccc(N4CCN(CCCN(C)C)CC4)n3)C2)c(C)c1` [G_CC-127, 3-[4-[2-[1-[(4-methoxy-2,6-dimethyl-phenyl)sulfonyl]-azetidin-3-yl]oxy-pyrimidin-4-yl]-piperazin-1-yl]-propyl-dimethyl-amine]: the inhibition at 10 µM was 54%.

As to `COc1cc(C)c(S(=O)(=O)N2CCCC(Oc3ccnc(N(C)CCN4CCC(c5ccccc5)(N5CCCC5)CC4)n3)C2)c(C)c1` (stereo not drawn) [H_CC-066, [4-[1-[(4-methoxy-2,6-dimethyl-phenyl)sulfonyl]-piperidin-3-yl]oxy-pyrimidin-2-yl]-methyl-[2-(4-phenyl-4-pyrrolidin-1-yl-piperidin-1-yl)-ethyl]amine], the inhibition at 10 µM worked out at 56%.
